The target in this experiment is T1, human SSTR4 (Homo sapiens, UniProt P31391).
T1 construct: expressed in transfected cells; host or cells: CHO-K1
T1 sequence (P31391 whole entry): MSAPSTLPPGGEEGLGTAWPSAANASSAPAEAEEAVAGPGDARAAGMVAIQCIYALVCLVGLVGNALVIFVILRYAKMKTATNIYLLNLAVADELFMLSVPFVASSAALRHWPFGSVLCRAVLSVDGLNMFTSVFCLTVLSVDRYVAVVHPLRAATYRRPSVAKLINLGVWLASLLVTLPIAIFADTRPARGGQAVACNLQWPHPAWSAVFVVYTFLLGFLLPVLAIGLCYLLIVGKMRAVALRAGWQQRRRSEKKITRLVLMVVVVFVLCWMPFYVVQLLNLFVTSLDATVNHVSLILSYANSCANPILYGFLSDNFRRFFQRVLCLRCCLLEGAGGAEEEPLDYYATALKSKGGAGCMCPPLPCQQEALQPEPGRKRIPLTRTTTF
As to the kind of experiment: hSSTR4 cAMP assay (cAMP accumulation, LANCE Ultra cAMP kit, CHO-K1 human SSTR4 Gi cell line). The settings on record: functional agonism, forskolin 10 μM stimulated CHO-K1 human SSTR4 Gi cells, 30 min at 25° C., at least duplicate, averaged; read-out: hSSTR4 EC50. Format: cell-based. The procedure, abridged: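 CHO-K1 cells expressing human SSTR4 (Gi), pre-cultured 18-20 h or thawed and used directly, stimulated with 10 μM forskolin plus test agonist in concentration series, 30 min at 25° C. Lysate cAMP read by TR-FRET (Eu-cAMP tracer/ULight-anti-cAMP, 1 h, 25° C). Normalized to forskolin-only and forskolin+100 nM SST14 controls, 4-parameter fit; ≥duplicate, averaged.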
A word on the EC50: it is the concentration giving half of the maximal effect. For `Cn1cc(CN2CCNC[C@H]2C(=O)NC(C)(C)c2ncc3c(C(F)(F)F)cccn23)cn1` [SC-111, (S)-1-((1-methyl-1H-pyrazol-4-yl)methyl)-N-(2-(8-(trifluoromethyl)imidazo[1,5-a]pyridin-3-yl)propan-2-yl)piperazine-2-carboxamide], the concentration giving a half-maximal response (EC50) was 94 nM.

Take `CN1CCN[C@H](C(=O)NC(C)(C)c2ncc3c(C(F)(F)F)cccn23)C1` [SC-112, (S)-4-methyl-N-(2-(8-(trifluoromethyl)imidazo[1,5-a]pyridin-3-yl)propan-2-yl)piperazine-2-carboxamide]: the EC50 was 490 nM.

Take `CC(C)(NC(=O)[C@@H]1CNCCN1CC1CC(F)(F)C1)c1ncc2c(C(F)(F)F)cccn12` [SC-113, (S)-1-((3,3-difluorocyclobutyl)methyl)-N-(2-(8-(trifluoromethyl)imidazo[1,5-a]pyridin-3-yl)propan-2-yl)piperazine-2-carboxamide]: the EC50 stood at 26 nM.

For `Cc1cccn2c(C(C)(C)NC(=O)[C@@H]3CNCCN3C)nc(C)c12` [SC-114, (S)-N-(2-(1,8-dimethylimidazo[1,5-a]pyridin-3-yl)propan-2-yl)-1-methylpiperazine-2-carboxamide], the concentration for a half-maximal effect (EC50) was found to be 0.38 nM.

As to `Cc1cccn2c(C(C)(C)NC(=O)[C@@H]3CNCCN3CC3CC(F)(F)C3)nc(C)c12` [SC-115, (S)-1-((3,3-difluorocyclobutyl)methyl)-N-(2-(1,8-dimethylimidazo[1,5-a]pyridin-3-yl)propan-2-yl)piperazine-2-carboxamide], the EC50 was determined as 0.34 nM.

In the case of `Cc1cccn2c(C(C)(C)NC(=O)[C@@H]3CN(C)CCN3)nc(C)c12` [SC-116, (S)-N-(2-(1,8-dimethylimidazo[1,5-a]pyridin-3-yl)propan-2-yl)-4-methylpiperazine-2-carboxamide], the EC50 came to 32 nM.

Regarding `Cc1cccn2c(C(C)(C)NC(=O)[C@@H]3CNCCN3Cc3cnn(C)c3)nc(C)c12` [SC-117, (S)-N-(2-(1,8-dimethylimidazo[1,5-a]pyridin-3-yl)propan-2-yl)-1-((1-methyl-1H-pyrazol-4-yl)methyl)piperazine-2-carboxamide], the EC50 came to 1.6 nM.

For the compound `CN1CCNC[C@H]1C(=O)NC(C)(C)c1ncc2c(C3CC3)cccn12` [SC-118, (S)-N-(2-(8-cyclopropylimidazo[1,5-a]pyridin-3-yl)propan-2-yl)-1-methylpiperazine-2-carboxamide], the EC50 came to 15 nM.

Consider `CN1CCN[C@H](C(=O)NC(C)(C)c2ncc3c(C4CC4)cccn23)C1` [SC-119, (S)-N-(2-(8-cyclopropylimidazo[1,5-a]pyridin-3-yl)propan-2-yl)-4-methylpiperazine-2-carboxamide], for which the EC50 was 540 nM.

For `Cn1cc(CN2CCNC[C@H]2C(=O)NC(C)(C)c2ncc3c(C4CC4)cccn23)cn1` [SC-120, (S)-N-(2-(8-cyclopropylimidazo[1,5-a]pyridin-3-yl)propan-2-yl)-1-((1-methyl-1H-pyrazol-4-yl)methyl)piperazine-2-carboxamide], the EC50 amounted to 53 nM.

Take `CC(C)(NC(=O)[C@@H]1CNCCN1CC1CC(F)(F)C1)c1ncc2c(C3CC3)cccn12` [SC-121, (S)-N-(2-(8-cyclopropylimidazo[1,5-a]pyridin-3-yl)propan-2-yl)-1-((3,3-difluorocyclobutyl)methyl)piperazine-2-carboxamide]: the EC50 was 16 nM.

For `Cc1cccc2c(C(C)(C)NC(=O)[C@@H]3CNCCN3CC3COC3)n[nH]c12` [SC-122, (S)—N-(2-(7-methyl-1H-indazol-3-yl)propan-2-yl)-1-(oxetan-3-ylmethyl)piperazine-2-carboxamide], the EC50 was found to be 1.2 nM.

With `Cn1nc(C(C)(C)NC(=O)[C@@H]2CNCCN2CC2COC2)c2ccccc21` [SC-123, (S)—N-(2-(1-methyl-1H-indazol-3-yl)propan-2-yl)-1-(oxetan-3-ylmethyl)piperazine-2-carboxamide], the EC50 amounted to 7.1 nM.

As to `Cc1cccc2c(C(C)(C)NC(=O)[C@@H]3CNCCN3C)noc12` [SC-124, (S)-1-methyl-N-(2-(7-methylbenzo[d]isoxazol-3-yl)propan-2-yl)piperazine-2-carboxamide], the EC50 was found to be 4.7 nM.

With `CN1CCNC[C@H]1C(=O)NC(C)(C)c1nnc2c(Cl)cccn12` [SC-125, (S)-N-(2-(8-chloro-[1,2,4]triazolo[4,3-a]pyridin-3-yl)propan-2-yl)-1-methylpiperazine-2-carboxamide], the EC50 turned out to be 1110 nM.

For the compound `Cc1cccc2c(C(C)(C)NC(=O)[C@@H]3CNCCN3C)nn(C)c12` [SC-126, (S)-N-(2-(1,7-dimethyl-1H-indazol-3-yl)propan-2-yl)-1-methylpiperazine-2-carboxamide], the EC50 is 2.6 nM.

`Cc1cccn2c(C(C)(C)NC(=O)[C@@H]3CNCCN3CC(F)F)ncc12` [SC-127, (S)-1-(2,2-difluoroethyl)-N-(2-(8-methylimidazo[1,5-al]pyridin-3-yl)propan-2-yl)piperazine-2-carboxamide]: the EC50 turned out to be 1.1 nM.

As to `COc1cccn2c(C(C)(C)NC(=O)[C@@H]3CNCCN3C)ncc12` [SC-128, (S)-N-(2-(8-methoxyimidazo[1,5-a]pyridin-3-yl)propan-2-yl)-1-methylpiperazine-2-carboxamide], the EC50 is 3.8 nM.

`CN1CCNC[C@H]1C(=O)NC(C)(C)c1n[nH]c2c(F)cccc12` [SC-129, (S)-N-(2-(7-fluoro-1H-indazol-3-yl)propan-2-yl)-1-methylpiperazine-2-carboxamide]: the 50% effective concentration (EC50) is 2.8 nM.

The values are drawn from US20250368625A1, “PIPERAZINES” (Grünenthal GmbH, priority 2024, published 2025).
